Test results taken from article PMC4230991, “In Silico Design and Biological Evaluation of a Dual Specificity Kinase Inhibitor Targeting Cell Cycle Progression and Angiogenesis” (PLoS ONE, 2014).
Read-outs that look alike come from different tables or passages of the source.

Key:
recombinant human VEGFR2 = target: T1, recombinant human VEGFR2 (Homo sapiens, UniProt P35968); experiment: 33P in vitro kinase HotSpot profiling assay, VEGFR2; type: biochemical
T1 construct: purchased Reaction Biology

[1] = target: T2, recombinant human CDK1/cyclin B complex (Homo sapiens, UniProt P06493); experiment: 33P in vitro kinase HotSpot profiling assay, CDK1/cyclin B; type: biochemical; details: [γ-33P]-ATP 10 µM; substrate histone H1; ten-point curves
T2 construct: purchased Reaction Biology

VEGFR2 = experiment: Immunoblot of VEGF-A-stimulated VEGFR2 activation and downstream signaling in HUVECs; type: cell-based, human
Method: (§1) All experiments were conducted at <6 cell passages.
(§2) Figure 2 JK-31 inhibits growth factor-stimulated receptor activation and downstream signal transduction. (A) HUVECs were pre-treated with JK-31 (0, 0.1, 1, 10 or 50 µM) for 30 min followed by 7.5 min stimulation with VEGF-A (25 ng/ml) in the presence of JK-31. Total cell lysates were prepared and processed for immunoblotting. Levels of phosphorylated VEGFR2, PLCγ1, Akt and ERK were analysed using phospho-specific antibodies. Membranes were stripped and re-probed for total protein levels and a loading control (α-tubulin). (B) Densitometric quantification of phosphorylated VEGFR2-pY1175 levels in response to VEGF-A and JK-31 treatment. Error bars represent ± SEM (n = 4; ***p<0.001). (C-D) JK-31 inhibits FGF-stimulated intracellular signaling in endothelial cells. HUVECs were pre-treated with JK-31 (0, 0.1, 1, 10 or 50 µM) for 30 min followed by 10 min stimulation with either (C) bFGF (50 ng/ml) or (D) aFGF (50 ng/ml) in the presence of JK-31. Cells were lysed and processed for immunoblotting. Representative immunoblots of three independent experiments are shown.

[2] = test system: FGF-stimulated intracellular signaling; experiment: Immunoblot of FGF (aFGF, bFGF)-stimulated ERK1/2 phosphorylation in HUVECs; type: cell-based, human; details: JK-31 0.1-50 µM
Method: as §1, §2

IGF-1-mediated signaling = experiment: Immunoblot of IGF-1-mediated signaling in HUVECs; type: cell-based, human; details: JK-31 0.1-50 µM, IGF-1 100 ng/ml 10 min
Method: as §1
Supplementary file pone.0110997.s006.tif: Figure S6 Relative specificity of JK-31 for the VEGF-A-VEGFR2 signaling pathway. […] HUVECs were pre-treated with JK-31 (0, 0.1, 1, 10 or 50 µM) for 30 min followed by a 10 min stimulation with either (A) EGF (50 ng/ml) or (B) IGF-1 (100 ng/ml) in the presence of JK-31. Total cell lysates were prepared and processed for immunoblotting. Levels of phosphorylated Akt and ERK1/2 were analysed using phospho-specific antibodies. Membranes were stripped and re-probed for total protein levels and a loading control (α-tubulin). Representative immunoblots of three independent experiments are shown. (TIF) Click here for additional data file.

[3] = test system: mouse aortic ring explants; experiment: Ex vivo murine aortic ring angiogenesis assay; type: cell-based; details: 10 µM and above, six days, Matrigel
Method: Three male five-month old wild type C57Bl/6 mice were humanely sacrificed followed by cervical dislocation. A thoraco-abdominal incision was made and the heart and aorta excised and stored in Hank's balanced buffer. The aortas were cleaned by removing connective tissue and adventitia from the exterior and each aorta was cut into 18–24 rings. Ring explants were embedded into growth-factor reduced Matrigel basement membrane matrix (Beckton Dickinson) in a 24-well plate and incubated for 45 min at 37°C to allow the Matrigel to set and the rings to adhere. […] Rings were photographed and the degree of sprouting measured using Cell∧B imaging software (Olympus, Tokyo, Japan). The mean of the three longest angiogenic sprouts on each ring was measured.
Figure 3 JK-31 inhibits angiogenesis in an ex vivo murine model and in vitro. […] (B) Absolute quantification of angiogenic sprout length. For each aortic ring, the mean of three longest sprouts was calculated. […] (D) Fluorescence microscopy analysis of endothelial cell phenotypes and filopodia formation during tubulogenesis in the presence of VEGF-A and JK-31. […] Quantification of (F) mean tubule branch length and (G) mean number of tubule branch points in response to JK-31 and exogenous growth factors. Light micrograph fields were chosen at random and quantification performed using Image J software. […]

HUVECs [4] = experiment: Organotypic tubulogenesis assay (HUVEC-fibroblast co-culture); type: cell-based, human; details: for inhibition at 10 µM / inhibition at 50 µM: Homo sapiens, HUVEC
Method: This assay was performed as previously described, [27]. Primary human foreskin fibroblasts (pHFF) were a gift from Gareth Howell (University of Leeds, UK) and were cultured routinely in DMEM containing 10% (v/v) FBS up to passage 10. In co-culture with HUVECs, the medium was replaced for endothelial cell growth medium (Promocell, Heidelberg, Germany).
Figure 3 JK-31 inhibits angiogenesis in an ex vivo murine model and in vitro. (A) Effects of JK-31 on ex vivo angiogenic sprouting from wild-type mouse aortic ring explants. Aortic rings were seeded onto Matrigel and treated with JK-31 (0, 1, 10 or 50 µM) for six days and imaged by phase-contrast microscopy. Freehand black lines delineate the outermost extent of sprouting. (B) Absolute quantification of angiogenic sprout length. For each aortic ring, the mean of three longest sprouts was calculated. Error bars represent ±SEM (n = 18; ***p<0.001). (C) JK-31 inhibits endothelial tube formation in vitro in response to exogenous VEGF-A. HUVECs were seeded onto a confluent layer of primary fibroblasts and treated with VEGF-A (10 ng/ml) for seven days in the presence of DMSO or JK-31 (1, 10 or 50 µM). Co-cultures were stained with CD31 antibody followed by HRP-conjugated secondary antibody and visualized by light microscopy using […] (DAB)-staining (see Materials and Methods). (D) Fluorescence microscopy analysis of endothelial cell phenotypes and filopodia formation during tubulogenesis in the presence of VEGF-A and JK-31. White arrowheads indicate vestigial lamellipodia-like structures. (E) JK-31 inhibits endothelial tube formation in vitro in response to exogenous bFGF (20 ng/ml). Treatment and processing was carried out as described above. Quantification of (F) mean tubule branch length and (G) mean number of tubule branch points in response to JK-31 and exogenous growth factors. Light micrograph fields were chosen at random and quantification performed using Image J software. Error bars represent ± SEM (n = 10; *p<0.05; **p<0.01; ***p<0.001) for each respective growth factor.

HUVECs [5] = experiment: Scratch wound healing assay; type: cell-based, human; details: 10 µM and above, 16 h
Method: Figure 4 JK-31 inhibits endothelial wound closure in vitro. (A) Scratch-wounded endothelial cell monolayers were incubated in either full growth medium (grey bars) or stimulated with 25 ng/ml VEGF-A (black bars) for 16 h in the presence of DMSO or JK-31 (1, 10 or 50 µM). Wounded cell monolayers were photographed before and after treatment and wound widths at each time point were measured using Image J software. Percentage wound closure was calculated by [(width before – width after)/width before] ×100. […] (B) Representative phase-contrast micrographs depicting wound closure over 16 h in the presence VEGF-A and either DMSO or JK-31 (10 µM).

HUVECs [6] = experiment: MTS cell viability assay; type: cell-based, human; details: two days (48 h), concentrations of up to 50 µM
Method: 2000 endothelial cells were seeded per well of a 96-well plate and cultured in ECGM overnight. ECGM was then aspirated and cells starved in MCDB131 +0.2% (w/v) BSA for 2 h. After 2 h, media was changed for ECGM with or without DMSO, plus or minus 100 nM, 1 µM, 10 µM or 50 µM JK-31 and cells incubated for 48 h. Then, 10 µl of MTS reagent (CellTiter 96 AQueous Non-Radioactive Cell Proliferation Assay, Promega, Madison, Wisconsin, USA) was added to each well after 44 h. After further incubation for 4-6 h, we monitored the color change caused by reduction of the yellow tetrazolium compound (MTS) by metabolically active cells to brown formazan. Change in color was monitored at 490 nm using a Tecan Sunrise multiwavelength 96-well plate reader (Tecan, Mannedorf, Switzerland).
(A) Relevant protein expression in HUVECs and MCF-7 cells. Total cell lysates were processed for immunoblotting. Membranes were probed with antibodies raised against VEGFR2, CDK1 and β-actin. Representative immunoblot was shown. (B) HUVECs were treated with DMSO or JK-31 (0.1, 1, 10, 50 µM) in full growth medium for 48 h followed by MTS assay and subsequent measurement of absorbance at OD490. Error bars represent ±SEM (n = 5). (TIF) Click here for additional data file.

HUVECs [7] = experiment: Flow cytometry analysis of cell cycle progression, endothelial cells; details: 48 h
Method: (§3) Cells were pelleted at 140 g at 4°C for 5 min and supernatant discarded. Cells were fixed in ice-cold 70% (v/v) ethanol added dropwise and stored at −20°C prior to analysis. Immediately before flow cytometry, cells were pelleted (140 g at 4°C for 5 min), supernatant removed and cells washed twice in 500 µl PBS. 100 µg/ml ribonuclease and 50 µg/ml propidium iodide (Sigma-Aldrich) was added to each sample and incubated for 2–3 h at 37°C. Cells were pelleted (140 g at 4°C for 5 min), supernatant removed and cells washed in 500 µl PBS before being resuspended in 500 µl PBS buffer containing 2.5 mM EDTA. Samples were gated and run at a low flow rate (<1000 events s^−1) on a Fortessa flow cytometer (Becton Dickinson, Oxford, UK) with multi-laser and detection capabilities. The information from 10000 events was collect and data was analyzed using ModFit software (Becton Dickinson).
(H) Quantification of cell cycle ratios after inhibitor treatment. Error bars represent ±SEM (n = 3). ***p<0.001; ****p<0.0001.

MCF-7 cells = experiment: Flow cytometry analysis of cell cycle progression, breast cancer cells; details: 48 h
Method: as §3
(H) Quantification of cell cycle ratios after inhibitor treatment. Error bars represent ±SEM (n = 3).). *p<0.05; **p<0.01; ***p<0.001; ****p<0.0001.

[8] = target: T2, recombinant human CDK1/cyclin B complex; set-up: method as in PMID 16204078; details: relative potency from IC50 values of a previous study; cited from earlier work
[9] = JK-31 10 or 50 µM, vs asynchronous controls

T2 sequence (P06493 whole entry): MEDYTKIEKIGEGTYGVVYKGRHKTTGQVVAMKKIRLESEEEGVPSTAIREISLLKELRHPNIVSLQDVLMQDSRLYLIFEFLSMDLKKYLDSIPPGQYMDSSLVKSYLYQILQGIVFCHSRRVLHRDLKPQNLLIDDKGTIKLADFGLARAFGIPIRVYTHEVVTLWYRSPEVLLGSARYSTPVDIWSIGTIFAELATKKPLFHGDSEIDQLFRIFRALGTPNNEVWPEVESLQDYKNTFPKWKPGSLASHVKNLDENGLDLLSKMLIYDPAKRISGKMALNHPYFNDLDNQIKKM
T2 sequence (P14635 whole entry partner): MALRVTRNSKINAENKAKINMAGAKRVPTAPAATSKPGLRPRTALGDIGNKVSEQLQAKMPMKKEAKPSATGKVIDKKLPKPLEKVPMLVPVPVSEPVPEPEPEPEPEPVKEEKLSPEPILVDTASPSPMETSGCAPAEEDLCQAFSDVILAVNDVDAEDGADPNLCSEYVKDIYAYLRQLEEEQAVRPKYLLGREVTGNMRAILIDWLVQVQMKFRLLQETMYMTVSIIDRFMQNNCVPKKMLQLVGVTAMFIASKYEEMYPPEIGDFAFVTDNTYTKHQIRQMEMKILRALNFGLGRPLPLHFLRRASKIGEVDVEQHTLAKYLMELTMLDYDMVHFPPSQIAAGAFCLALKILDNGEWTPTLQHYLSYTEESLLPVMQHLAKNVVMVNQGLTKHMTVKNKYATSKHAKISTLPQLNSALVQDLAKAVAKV
T1 sequence (P35968 20-1356): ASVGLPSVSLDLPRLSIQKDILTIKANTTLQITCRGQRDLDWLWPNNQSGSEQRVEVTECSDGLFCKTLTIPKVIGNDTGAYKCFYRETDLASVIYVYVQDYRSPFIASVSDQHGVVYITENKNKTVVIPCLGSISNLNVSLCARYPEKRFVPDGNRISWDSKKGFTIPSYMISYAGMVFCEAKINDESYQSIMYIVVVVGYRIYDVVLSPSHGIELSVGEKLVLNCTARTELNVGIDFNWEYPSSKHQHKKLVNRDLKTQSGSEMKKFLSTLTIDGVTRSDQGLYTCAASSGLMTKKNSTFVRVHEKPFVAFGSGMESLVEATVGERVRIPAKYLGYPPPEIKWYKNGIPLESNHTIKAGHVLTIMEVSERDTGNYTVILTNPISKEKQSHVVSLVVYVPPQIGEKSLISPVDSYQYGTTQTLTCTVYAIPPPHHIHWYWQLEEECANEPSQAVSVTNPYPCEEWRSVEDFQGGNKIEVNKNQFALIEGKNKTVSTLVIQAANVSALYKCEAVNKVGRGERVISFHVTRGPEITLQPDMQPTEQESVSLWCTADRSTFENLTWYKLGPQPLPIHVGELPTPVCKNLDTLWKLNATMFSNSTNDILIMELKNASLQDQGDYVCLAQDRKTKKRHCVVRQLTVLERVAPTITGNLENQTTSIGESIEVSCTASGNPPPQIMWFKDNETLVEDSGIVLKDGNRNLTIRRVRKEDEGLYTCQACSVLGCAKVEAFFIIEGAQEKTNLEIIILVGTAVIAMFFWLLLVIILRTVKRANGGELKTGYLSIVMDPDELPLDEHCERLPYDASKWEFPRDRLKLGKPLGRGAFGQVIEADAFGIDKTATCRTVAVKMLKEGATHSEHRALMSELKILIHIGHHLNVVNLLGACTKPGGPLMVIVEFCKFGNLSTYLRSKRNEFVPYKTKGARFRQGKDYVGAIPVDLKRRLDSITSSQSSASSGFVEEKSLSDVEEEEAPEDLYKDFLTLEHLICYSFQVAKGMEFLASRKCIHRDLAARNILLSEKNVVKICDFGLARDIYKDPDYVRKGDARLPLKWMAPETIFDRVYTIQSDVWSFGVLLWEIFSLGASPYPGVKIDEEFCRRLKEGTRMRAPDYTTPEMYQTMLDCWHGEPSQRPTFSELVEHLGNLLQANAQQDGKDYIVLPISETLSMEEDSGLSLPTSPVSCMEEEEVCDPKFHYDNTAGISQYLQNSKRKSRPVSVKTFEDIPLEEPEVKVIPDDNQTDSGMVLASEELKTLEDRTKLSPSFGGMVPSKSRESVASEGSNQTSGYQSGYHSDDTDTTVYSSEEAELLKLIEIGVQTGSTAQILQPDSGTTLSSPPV

CC(C)(C)c1ccc(C(=O)n2nc(Nc3ccccc3)nc2N)cc1 [JK-31, (5-amino-3-(phenylamino)-1H-1,2,4-triazol-1-yl)(4-(tert-butyl)phenyl)methanone]
IC50 (recombinant human VEGFR2; [γ-33P]-ATP 10 µM, substrate poly[Glu:Tyr] (4:1), ten-point curves): 0.627 µM | Selectivity for VEGFR2 than CDK1 (recombinant human VEGFR2; relative potency from IC50 values): ~4 fold | IC50 [1]: 2.54 µM | Inhibition of phosphorylation of residue Y1175 within VEGFR2 (VEGFR2; HUVECs, JK-31 10 µM and above, 30 min pre-treatment, VEGF-A 25 ng/ml 7.5 min): > 60% | VEGF-A-stimulated signal transduction (PLCγ1-pY783, Akt-pS473, ERK1/2-pT202/pY204) (VEGFR2; HUVECs, JK-31 0.1-50 µM, VEGF-A 25 ng/ml 7.5 min): inhibited VEGF-A-stimulated signal transduction in a dose-dependent manner | Cellular IC50 relative to cell-free phosphorylation assay (VEGFR2; VEGF-A-stimulated VEGFR2 activation and downstream signaling in endothelial cells vs recombinant kinases): approximately 10 fold | ERK1/2 phosphorylation in response to aFGF ([2]; aFGF 50 ng/ml 10 min): dose-dependent inhibition | ERK1/2 phosphorylation in response to bFGF ([2]; bFGF 50 ng/ml 10 min): dose-dependent inhibition | ERK1/2 phosphorylation in response to IGF-1 (IGF-1-mediated signaling): not in response to either EGF or IGF-1 | Inhibition of radial angiogenic sprout formation [3]: more than 40% | Reduction of bFGF-stimulated branching (HUVECs [4]; 10 µM, bFGF 20 ng/ml): more than 90% | Endothelial tubule phenotype (HUVECs [4]; 10 µM, in the presence of VEGF-A): aberrant hyper-branched endothelial tubule phenotype | Reduction in branching (VEGF-A) (HUVECs [4]; 50 µM, VEGF-A 10 ng/ml, seven days): more than 80% | Reduction of bFGF-stimulated branching (HUVECs [4]; 50 µM, bFGF 20 ng/ml): more than 90% | inhibition at 10 µM (HUVECs [4]; 168 h, 10 µM, VEGF-A 10 ng/ml, seven days, read-out: Inhibition of VEGF-A-stimulated endothelial tube formation): ~35% | inhibition at 50 µM (HUVECs [4]; 168 h, 50 µM, VEGF-A 10 ng/ml, seven days, read-out: Inhibition of VEGF-A-stimulated endothelial tube formation): > 80% | inhibition at 10 µM (HUVECs [4]; 10 µM, bFGF 20 ng/ml, read-out: Inhibition of bFGF-stimulated endothelial tube formation): ~75% | inhibition at 50 µM (HUVECs [4]; 50 µM, bFGF 20 ng/ml, read-out: Inhibition of bFGF-stimulated endothelial tube formation): > 95% | VEGF-A-stimulated wound closure (HUVECs [5]; VEGF-A 25 ng/ml): completely inhibited | Wound closure in full growth medium (HUVECs [5]; full growth medium): only partially inhibited | Cytotoxic effects on endothelial cells (cell viability, MTS) (HUVECs [6]): no significant cytotoxic effects | Number of cells present in G1 (HUVECs [7]; JK-31 10 or 50 µM): significant increase in the number of cells present in G1 | Proportion of cells in G2/M phase (HUVECs [7]; [9]): significant decrease in the proportion of cells in the G2/M phase | Number of cells present in S phase (HUVECs [7]; JK-31 treatment): not a significant change | Number of cells present in G1 (MCF-7 cells; JK-31 10 or 50 µM): significant increase in the number of cells present in G1 | Proportion of cells in G2/M phase (MCF-7 cells; [9]): significant decrease in the proportion of cells in the G2/M phase | Number of cells present in S phase (MCF-7 cells; JK-31 treatment): significantly decreased

Nc1nc(Nc2ccc(S(N)(=O)=O)cc2)nn1C(=O)c1c(F)cccc1F [JNJ-7706621]
More potent inhibitor of CDK1 than VEGFR2 [8]: ~17 fold
